Data taken from patent publication US20240239811A1, “5-(5-(PIPERIDIN-4-YL)THIENO[3,2-C]PYRAZOL-2-YL]INDAZOLE DERIVATIVES AND RELATED COMPOUNDS AS MODULATORS FOR SPLICING NUCLEIC ACIDS AND FOR THE T” (REMIX THERAPEUTICS INC., priority 2020, published 2024).

What was measured:
Format in all cases: cell-based
HTT mRNA = assay: Splicing assay (RT-qPCR) monitoring HTT splice variants, canonical (CJ) and alternative (AJ) junction; details: 50% response, A673 or K562 cell line, 24 hours; for IC50: decrease in CJ mRNA; for AC50: increase in AJ mRNA
Procedure, shortened: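 A673 or K562 cells were treated 24 h with an 11-point 3-fold dilution series (top 10 uM, ≤0.25% DMSO) at 37 °C. HTT canonical- and alternative-junction mRNAs were quantified in lysates by one-step RT-qPCR. Values were normalized to PPIA (A673) or GAPDH/GUSB (K562).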

Target C CJ mRNA = assay: Gene panel canonical junction qPCR assay, Target C; details: Table 6, decrease in CJ mRNA, read-out: Target C IC50 (decrease in CJ mRNA levels)
Procedure, shortened: (§1)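 A673 or K562 cells treated 24 h at 37° C with 11-point 3-fold dilutions, top 10 uM, DMSO ≤0.25%. CJ mRNA quantified by RT-qPCR with exon-junction-spanning probeset, ΔΔCt vs housekeeping gene (GAPDH, GUSB or PPIA) and DMSO control. IC50 from 4-parameter fit of percentage CJ decrease.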

SMN2 CJ mRNA = assay: Gene panel canonical junction qPCR assay, SMN2; details: Table 6, decrease in CJ mRNA, read-out: SMN2 IC50 (decrease in CJ mRNA levels)
Procedure, shortened: as §1

HTT CJ mRNA = assay: Gene panel canonical junction qPCR assay, HTT; details: Table 6, decrease in CJ mRNA, read-out: HTT IC50 (decrease in CJ mRNA levels)
Procedure, shortened: as §1

Structure (SMILES)	IC50 (HTT mRNA)	AC50 (HTT mRNA)	IC50 (Target C CJ mRNA)	IC50 (SMN2 CJ mRNA)	IC50 (HTT CJ mRNA)
Cc1cn2cc(-n3cc4sc(C5CCNCC5)cc4n3)cc(F)c2n1 [Compound 166, 4-(2-{8-fluoro-2-methylimidazo[1,2-a]pyridin-6-yl}thieno[3,2-c]pyrazol-5-yl)piperidine]	0.1 to 1 µM	0.1 to 1 µM	1 to 10 µM	0.1 to 1 µM	0.1 to 1 µM
Cn1cc2cc(-c3nc4sc(N5CCNC(C)(C)C5)cc4s3)cc(F)c2n1 [Compound 142, 5-[5-(3,3-dimethylpiperazin-1-yl)thieno[2,3-d][1,3]thiazol-2-yl]-7-fluoro-2-methylindazole]	0.1 to 1 µM	0.1 to 1 µM	1 to 10 µM	< 0.1 µM	0.1 to 1 µM
COc1c(-c2cc3cn(C4CCNCC4)nc3s2)cc2cn(C)nc2c1F [Compound 218]	< 0.1 µM	0.1 to 1 µM	0.1 to 1 µM	< 0.1 µM	< 0.1 µM
Cc1cn2nc(-c3cc4cn(C5CCNCC5)nc4s3)cc(C)c2n1 [Compound 162, 4-(5-{2,8-dimethylimidazo[1,2-b]pyridazin-6-yl}thieno[2,3-c]pyrazol-2-yl)piperidine]	< 0.1 µM	< 0.1 µM	0.1 to 1 µM	< 0.1 µM	< 0.1 µM
CCN1CCC(n2cc3cc(-c4cc(F)c5nn(C)cc5c4)sc3n2)CC1 [Compound 149, 5-[2-(1-ethylpiperidin-4-yl)thieno[2,3-c]pyrazol-5-yl]-7-fluoro-2-methylindazole]	< 0.1 µM	< 0.1 µM	0.1 to 1 µM	< 0.1 µM	< 0.1 µM
Cc1nc2c(F)cc(-n3cc4sc(C5CCNCC5)cc4n3)cc2o1 [Compound 167]	0.1 to 1 µM	0.1 to 1 µM	1 to 10 µM	0.1 to 1 µM	0.1 to 1 µM
Cc1nc2c(F)cc(-c3nc4sc(C5CCNCC5)cc4s3)cc2o1 [Compound 132, 4-fluoro-2-methyl-6-[5-(piperidin-4-yl)thieno[2,3-d][1,3]thiazol-2-yl]-1,3-benzoxazole]	< 0.1 µM	< 0.1 µM	0.1 to 1 µM	< 0.1 µM	< 0.1 µM
Cc1cn2nc(-n3cc4sc(N5CCC(NC(C)(C)C)C5)cc4n3)cc(C)c2n1 (centres unmarked) [Compound 189, N-tert-butyl-1-(2-{2,8-dimethylimidazo[1,2-b]pyridazin-6-yl}thieno[3,2-c]pyrazol-5-yl) pyrrolidin-3-amine]	> 10 µM	> 10 µM	> 10 µM	1 to 10 µM	> 10 µM
Cc1cn2cc(-n3cc4sc(C5CCNCC5)cc4n3)ncc2n1 [Compound 169]	1 to 10 µM	1 to 10 µM	1 to 10 µM	1 to 10 µM	1 to 10 µM
c1n[nH]cc1-n1cc2cc(C3CCNCC3)sc2n1 [Compound 180]	> 10 µM	> 10 µM	> 10 µM	> 10 µM	> 10 µM
Cn1cc2cc(-c3nc4sc(C5CCNCC5)cc4s3)cc(F)c2n1 [Compound 106, 7-fluoro-2-methyl-5-[5-(piperidin-4-yl)thieno[2,3-d][1,3]thiazol-2-yl]indazole]	< 0.1 µM	< 0.1 µM	< 0.1 µM	< 0.1 µM	< 0.1 µM
Cc1cn2cc(-c3cc4cn(C5CCNCC5)nc4s3)ncc2n1 [Compound 223]	1 to 10 µM	1 to 10 µM	1 to 10 µM	0.1 to 1 µM	1 to 10 µM
Cc1nc2c(F)cc(-n3cc4sc(C5CCNCC5)cc4n3)cc2s1 [Compound 168]	1 to 10 µM	1 to 10 µM	> 10 µM	0.1 to 1 µM	1 to 10 µM
Cn1cc2cc(-c3nc4sc(N5CCC6(CCN6)C5)cc4s3)cc(F)c2n1 (centres unmarked) [Compound 233, 5-(5-{1,6-diazaspiro[3.4]octan-6-yl}thieno[2,3-d][1,3]thiazol-2-yl)-7-fluoro-2-methylindazole]	1 to 10 µM	1 to 10 µM	1 to 10 µM	< 0.1 µM	1 to 10 µM
Cc1cn2nc(-c3nc4sc(C5CCNCC5)cc4s3)cc2c(C)n1 [Compound 133, 4-(2-[4,6-dimethylpyrazolo[1,5-a]pyrazin-2-yl]thieno[2,3-d][1,3]thiazol-5-yl)piperidine]	0.1 to 1 µM	0.1 to 1 µM	0.1 to 1 µM	0.1 to 1 µM	0.1 to 1 µM
C[C@@H]1C[C@@H](c2cc3sc(-c4cc(F)c5nn(C)cc5c4)nc3s2)CCN1 [Compound 193, 7-fluoro-2-methyl-5-[5-(2-methylpiperidin-4-yl)thieno[2,3-d][1,3]thiazol-2-yl]indazole]	< 0.1 µM	< 0.1 µM	< 0.1 µM	< 0.1 µM	< 0.1 µM
Cn1cc2cc(-c3cc4cn(C5CCNCC5)nc4s3)cc(F)c2n1 [Compound 122, 7-fluoro-2-methyl-5-[2-(piperidin-4-yl)thieno[2,3-c]pyrazol-5-yl]indazole]	< 0.1 µM	0.1 to 1 µM	< 0.1 µM	< 0.1 µM	< 0.1 µM
Cc1cn2nc(-c3nc4sc(C5CCOCC5)cc4s3)cc(C)c2n1 [Compound 196, 2,8-dimethyl-6-[5-(oxan-4-yl)thieno[2,3-d][1,3]thiazol-2-yl]imidazo[1,2-b]pyridazine]	1 to 10 µM	1 to 10 µM	1 to 10 µM	1 to 10 µM	1 to 10 µM
COc1cc2nn(C)cc2cc1-c1cc2cn(C3CCNCC3)nc2s1 [Compound 208]	0.1 to 1 µM	0.1 to 1 µM	0.1 to 1 µM	< 0.1 µM	0.1 to 1 µM
Cn1cc2cc(-c3cc4cn(C5=CCOCC5)nc4s3)cc(F)c2n1 [Compound 177]	> 10 µM	> 10 µM	> 10 µM	> 10 µM	> 10 µM
Cc1cn2cc(-c3nc4sc(C5CCNCC5)cc4s3)cc(Cl)c2n1 [Compound 139]	< 0.1 µM	< 0.1 µM	< 0.1 µM	< 0.1 µM	< 0.1 µM
Cc1cn2nc(-c3cc4sc(C5CCNCC5)nc4s3)cc(C)c2n1 [Compound 125, 4-(5-[2,8-dimethylimidazo[1,2-b]pyridazin-6-yl]thieno [2,3-d][1,3]thiazol-2-yl) piperidine]	0.1 to 1 µM	0.1 to 1 µM	1 to 10 µM	0.1 to 1 µM	0.1 to 1 µM
Cc1cn2cc(-c3nc4sc(C5CCNCC5)cc4s3)ncc2n1 [Compound 205, 4-(2-{2-methylimidazo[1,2-a]pyrazin-6-yl}thieno[2,3-d][1,3]thiazol-5-yl)piperidine]	1 to 10 µM	1 to 10 µM	1 to 10 µM	1 to 10 µM	1 to 10 µM
Cc1cn2nc(-c3nc4sc(C5=CCNCC5)cc4s3)cc(C)c2n1 [Compound 198, 4-(2-{2,8-dimethylimidazo[1,2-b]pyridazin-6-yl}thieno[2,3-d][1,3]thiazol-5-yl)-1,2,3,6-tetrahydropyridine]	< 0.1 µM	0.1 to 1 µM	1 to 10 µM	< 0.1 µM	< 0.1 µM
Cc1cn2cc(-n3cc4sc(C5CCNCC5)cc4n3)cc(Cl)c2n1 [Compound 172]	0.1 to 1 µM	0.1 to 1 µM	1 to 10 µM	0.1 to 1 µM	0.1 to 1 µM
